Measured values: US12133900B2, “Synthesis and composition of amino acid linking groups conjugated to compounds used for the targeted imaging of tumors” (Purdue Research Foundation, priority 2013, dated 2024)
“Also recorded” adds a separate entry of the source.

Legend:
[1] = biological target: T1, folate receptor (FR-α) on KB cells (Homo sapiens, UniProt P15328); assay: Competition binding with [3H]-folic acid on KB cells; conditions: for affinity and specificity for folate receptor (words) / Kd: KB cells; for Relative binding affinities: relative affinity of folic acid=1, <1 weaker; for Kd: 10 nM [3H]-folic acid, 1 h at 37 °C, read-out: dissociation constants (KD)
T1 construct: KB cells that overexpress FR-α were seeded in 24-well (100,000 cells/well) Falcon plates; host or cells: KB cells (human; described as a HeLa derivative)
Procedure: KB cells that overexpress FR-α were seeded in 24-well (100,000 cells/well) Falcon plates and allowed to form monolayers over a period of 24 h. […] After incubating for 1 hour at 37° C., cells were rinsed with PBS (2×0.5 mL) and 1M trichloroacetic acid (1×0.5 mL) to remove any unbound radioactive materials. After adding 1% sodium dodecylsulfate in PBS (0.5 mL), cells were transferred into individual scintillation vials containing Ecolume scintillation cocktail (3.0 mL) and counted in a liquid scintillation analyzer. The relative binding affinities were calculated using a plot of cell bound radioactivity versus the concentration of the test article using Graph Pad Prism 4.
(§1) KB cells that overexpress FR-α were seeded in 24-well (100,000 cells/well) Falcon plates (BD Biosciences, CA) and allowed to form monolayers over a period of 12 h. […] After incubating for 1 h at 37° C., cells were rinsed with PBS (3×0.5 mL, Gibco, NY) to remove any unbound radioactive materials. After adding 0.25 M sodium hydroxide (0.5 mL) and incubating for 12 h at 4° C., cells were transferred into individual scintillation vials containing Ecolite scintillation cocktail (3.0 mL, MP Biomedicals, OH) and counted in a liquid scintillation analyzer (Packard). The relative binding affinities were calculated using a plot of % cell bound radioactivity versus the log concentration of the test article using GraphPad Prism 4.
as §1, with “12 hours.” for “12 h.”, “1 hour” for “1 h”, “12 hours” for “12 h”

[2] = Toxicity in healthy nude mice; type: in vivo
Procedure: Seven-week-old healthy female nude mice (5 mice/group) were administered with 1 μmol of freshly prepared OTL-0038 or OTL-0039 dissolved in 100 μL of phosphate buffered saline via tail vein injection on day zero. Body weights and clinical observations were monitored prior to dosing and daily thereafter from day zero to 7. Any animals with a body weight loss of 20% or more over two consecutive days would be euthanized, but this was not necessary. The animals were euthanized by CO2 asphyxiation on day 7 and selected tissues (brain, heart, lung, liver, spleen, kidney, stomach, small intestine, large intestine, muscle, skin) were collected into vials containing 4% formalin. Formalin fixed tissues were sectioned into 10 μm thick sections and mounted onto Superfrost Plus™ slides (Fisher Scientific, Pittsburgh Pa.). After staining the slides with H&E, immunohistochemistry (IHC) analysis of the tissues was conducted to determine to the toxicity of OTL-0038 and OTL-0039.

[3] = tested on: folate receptor positive KB tumor xenografts; assay: Whole body imaging and tissue biodistribution, KB tumor xenografts; type: in vivo, mice; conditions: for whole body imaging: accumulation / tumor fluorescence intensity, direct comparison: 10 nmol i.v.; for whole body imaging: accumulation / tumor fluorescence / tumor fluorescence intensity, direct comparison: 2 h; for tumor fluorescence: 10 nmol
Procedure: (§2) Seven-week-old female nu/nu mice were inoculated subcutaneously with KB cells (1.0×10^6/mouse in folate free RPM11640 medium) on the shoulder. […] […] Whole body imaging (intact tumor) experiments were then performed using a Caliper IVIS Lumina II Imaging Station with Living Image 4.0 software (PerkinElmer Inc, MA). Settings for imaging:—lamp level: medium; excitation: 745 nm; emission: 830 nm; epi illumination; binning: 4 (M), FOV=12.5; f-stop=2; acquisition time=1 s.
(§3) Following whole body imaging, animals were dissected and selected tissues (heart, lung, liver, spleen, kidneys, stomach, small intestine, large intestine, muscle, skin, tumor) were analyzed for fluorescence activity using IVIS imager as before. Settings for imaging: lamp level: medium; excitation: 745 nm; emission: 830 nm; epi illumination; binning: 4 (M), FOV=12.5; f-stop=2; acquisition time=1 s.
as §2, with “shoulder. Growth of the tumors was measured in perpendicular directions every 2 days using a caliper (body weights were monitored on the same schedule), and the volumes of the tumors were calculated as 0.5×L×W^2 (L=longest axis and W=axis perpendicular to L in millimeters).” for “shoulder.”, “ICG (830 nm);” for “830 nm;”
as §3, with “skin, and” for “skin,”, “imaging:—lamp” for “imaging: lamp”, “emission:ICG (830 nm);” for “emission: 830 nm;”
Five-week-old female nu/nu mice were inoculated subcutaneously with KB cells (1.0×10^6/mouse in RPMI medium) on their shoulders. Growth of the tumors was measured in two perpendicular directions every 2 days using a caliper (body weights were monitored on the same schedule), and the volumes of the tumors were calculated as 0.5×L×W^2 (L) longest axis and W) axis perpendicular to L in millimeters). Once tumors reached between 400 and 500 mm3 in volume, animals were treated with folate receptor-targeted NIR dye conjugate (10 nmol) in phosphate buffered saline (100 μL). […]
Animal imaging experiments were performed using a Caliper Ivis Lumina II Imaging Station with Living Image 4.0 software. Settings for imaging Alexa Fluor 647 and DyLight 680 conjugates: lamp level: high; excitation: 605; emission: Cy5.5; epi illumination; binning: (M) 4; FOV=7.5; f-stop=4; acquisition time=1 s. Settings for imaging DyLight 750 and IR800CW conjugates: lamp level: high; excitation: 745; emission: ICG; epi illumination; binning: (M) 4, FOV=12.5; f-stop=4; acquisition time=1 s.
Seven-week-old female nu/nu mice were inoculated subcutaneously with KB cells (1.0×10^6/mouse in folate free RPM11640 medium) on the shoulder. Growth of the tumors was measured in perpendicular directions every 2 days using a caliper (body weights were monitored on the same schedule), and the volumes of the tumors were calculated as 0.5×L×W^2 (L=longest axis and W=axis perpendicular to L in millimeters). Once tumors reached between 400 and 500 mm3 in volume, animals (5 mice/group) were intravenously injected with 10 nmol of OTL-0038 or OTL-0039 in phosphate buffered saline (100 μL). After 2.5 hours, animals were euthanized by CO2 asphyxiation. Whole body imaging (intact tumor) experiments were then performed using a Caliper IVIS Lumina II Imaging Station with Living Image 4.0 software (PerkinElmer Inc, MA). […]

[4] = Chemical and optical properties of NIR dyes (Table 1); type: physicochemical

T1 sequence (P15328 25-234): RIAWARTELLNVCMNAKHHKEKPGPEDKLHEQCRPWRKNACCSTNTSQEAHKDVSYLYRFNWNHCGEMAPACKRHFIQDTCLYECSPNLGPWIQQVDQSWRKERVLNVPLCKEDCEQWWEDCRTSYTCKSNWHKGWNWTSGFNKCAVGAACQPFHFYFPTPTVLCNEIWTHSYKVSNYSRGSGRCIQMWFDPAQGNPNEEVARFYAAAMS

Row | Compound | Relative binding affinities [1] | whole body imaging: accumulation [3] | Kd [1] [nM] | other results
1 | CC1(C)C(=CC=C2CCCC(C=CC3=[N+](CCCCS(=O)(=O)[O-])c4ccc(S(=O)(=O)O)cc4C3(C)C)=C2Oc2ccc(C[C@@H](NC(=O)c3ccc(NCc4cnc5nc(N)[nH]c(=O)c5n4)cc3)C(=O)O)cc2)N(CCCCS(=O)(=O)O)c2ccc(S(=O)(=O)O)cc21 [OTL-0039, PTE-D-Tyr-S0456] | 0.09 | – | – | affinity and specificity for folate receptor (words) [1]: lower affinity for folate receptor when compared to folic acid and OTL-0038; toxicity (conclusion) ([2]; 1 μmol (1000× clinical dose)): not toxic to animals; skin colour immediately after the injection ([2]; 1 μmol tail vein): became green; activity and behaviour ([2]; 1 μmol tail vein, day 0 to 7): behaved normally throughout the study; body weights over the course of the study ([2]; 1 μmol tail vein, day 0 to 7): remained stable; lesions in tissues (IHC data) ([2]; 1 μmol tail vein, day 7): no lesions identified in any tissues
2 | Pteroyl-Cys-S0456 [OTL-0054] | – | accumulated predominantly in the folate receptor-positive tumors | – | –
3 | Pteroyl-Lys-S0456 [OTL-0053] | – | – | – | tumor fluorescence ([3]; excited at 605-675 nm, emitted at ICG (830 nm)): bright tumor fluorescence; tumor fluorescence ([3]; excited at 710-745 nm, emitted at ICG): only a moderate brightness; Stoke's shift ([3]; in vivo imaging): longer Stoke's shift
4 | Pte-N(Me)-Tyr-S0456 [OTL-0044] | – | accumulated predominantly in the folate receptor-positive tumors; also recorded: mainly accumulated in the tumors | – | affinity and specificity for folate receptor (words) [1]: All the compounds have an affinity for folate receptor except OTL-0044 and OTL-0045
5 | Pte-Tyr-13C-S0456 [OTL-0040] | 0.290 | – | 27.6 | –
6 | Pte-Tyramine-S0456 [OTL-0049] | 0.265 | – | 30.2 | –
7 | CC1(C)C(/C=C/C=C/C=C/C=C2\N(CCCCS(=O)(=O)O)c3ccc4ccccc4c3C2(C)C)=[N+](CCCCS(=O)(=O)[O-])c2ccc3ccccc3c21 [ICG, indocyanine green] | – | – | – | E [4]: 121000 M⁻¹ cm⁻¹; Q (%) [4]: 9.3%; Stokes Shift (nm) [4]: 15 nm; λem (nm) [4]: 807 nm; λex (nm) [4]: 822 nm
8 | Pteroyl DAP-S0456 [OTL-0056] | 0.078 | – | 95.2 | –
9 | FA-EDA-IR800 [OTL-0002] | 0.430 | accumulated predominantly in the folate receptor positive tumors | 19.3 | tumor fluorescence intensity, direct comparison [3]: brighter (higher fluorescence intensity); also recorded: highest tumor-accumulated fluorescence
10 | Pte-Tyr-(OBn)-S0456 [OTL-0043] | 0.177 | – | 14.8 | –
11 | CC1(C)C(/C=C/C2=C(Oc3ccc(S(=O)(=O)O)cc3)C(=C/C=C3/N(CCCCS(=O)(=O)O)c4ccc(S(=O)(=O)[O-])cc4C3(C)C)/CCC2)=[N+](CCCCCC(=O)O)c2ccc(S(=O)(=O)O)cc21 [IR800CW] | – | – | – | E [4]: 237000 M⁻¹ cm⁻¹; Q (%) [4]: 14.2%; Stokes Shift (nm) [4]: 14 nm; λem (nm) [4]: 786 nm; λex (nm) [4]: 800 nm
12 | CC1(C)C(=CC=C2CCCC(C=CC3=[N+](CCC[N+](C)(C)C)c4ccc(S(=O)(=O)O)cc4C3(C)C)=C2Oc2ccc(CCC(=O)O)cc2)N(CCC[N+](C)(C)C)c2ccc(S(=O)(=O)O)cc21 [ZW80o] | – | – | – | E [4]: 249000 M⁻¹ cm⁻¹; Q (%) [4]: 15.1%; Stokes Shift (nm) [4]: 16 nm; λem (nm) [4]: 772 nm; λex (nm) [4]: 788 nm
13 | Pte-p-homo-Tyr-S0456 [OTL-0047] | 0.625 | accumulated predominantly in the folate receptor-positive tumors; also recorded: mainly accumulated in the tumors | 12.8 | –
14 | Pte-NHNH-Tyr-(OAc)-S0456 [OTL-0045] | – | – | – | affinity and specificity for folate receptor (words) [1]: All the compounds have an affinity for folate receptor except OTL-0044 and OTL-0045
15 | Pte-homo-Tyr-S0456 [OTL-0046] | 0.580 | accumulated predominantly in the folate receptor-positive tumors; also recorded: mainly accumulated in the tumors | 13.8 | –
16 | FA-EDA-Kodak2 [OTL-0004] | 0.271 | did not accumulated in the tumors | 30.6 | tumor fluorescence intensity, direct comparison [3]: very low specificity for the tumor and low fluorescence
17 | FA-EDA-ZW800 [OTL-0003] | 0.356 | accumulated predominantly in the folate receptor positive tumors | 23.3 | tumor fluorescence intensity, direct comparison [3]: highest tumor-accumulated fluorescence
18 | FA-EDA-LS288 [OTL-0001] | 0.270 | accumulated predominantly in the folate receptor positive tumors | 30.7 | –
19 | Pte-Tyr-2H(Deuterated)-S0456 [OTL-0042] | 0.130 | – | 61.7 | –
